The source of these data is patent publication US9914730B2, “Azaquinazoline inhibitors of Atypical protein Kinase C” (Ignyta, Inc., priority 2012, dated 2018).

A word on the pIC50: it is the negative decadic logarithm of the IC50, by convention in mol/L.

pIC50: −log10 of the molar value.

The target of the assay is T1, full-length human PKCι (Homo sapiens, UniProt P41743).
T1 construct: Recombinant, full-length human PKCι expressed in Sf21 insect cells is also commercially available; purchased; host or cells: Sf21 insect cells
T1 sequence (P41743 1-596): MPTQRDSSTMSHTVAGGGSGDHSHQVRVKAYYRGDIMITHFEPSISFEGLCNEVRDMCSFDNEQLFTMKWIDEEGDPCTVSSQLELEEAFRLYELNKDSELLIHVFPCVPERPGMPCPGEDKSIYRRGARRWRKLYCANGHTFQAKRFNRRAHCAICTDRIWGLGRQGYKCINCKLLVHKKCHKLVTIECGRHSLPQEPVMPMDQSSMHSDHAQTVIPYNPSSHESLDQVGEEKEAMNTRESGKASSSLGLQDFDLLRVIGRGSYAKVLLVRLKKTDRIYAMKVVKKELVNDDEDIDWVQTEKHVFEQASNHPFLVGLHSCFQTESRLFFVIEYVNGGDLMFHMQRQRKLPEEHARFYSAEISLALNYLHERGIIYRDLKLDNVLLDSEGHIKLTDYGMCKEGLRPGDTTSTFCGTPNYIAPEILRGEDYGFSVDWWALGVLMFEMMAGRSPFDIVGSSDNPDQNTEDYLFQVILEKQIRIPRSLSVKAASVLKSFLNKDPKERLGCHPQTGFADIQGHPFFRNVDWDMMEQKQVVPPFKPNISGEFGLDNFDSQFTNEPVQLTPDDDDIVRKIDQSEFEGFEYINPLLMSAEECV
The experiment in a line: PKCι IC50 IMAP assay, full-length PKCι at 150 μM ATP. The format is biochemical. Particulars: read-out: IC50 in IMAP assay against full length PKCi at 150 μM ATP. The procedure, abridged: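 Phosphorylation of a 5FAM-tagged PKCε pseudopeptide-derived substrate (100 nM) by full-length recombinant human PKCι was monitored by IMAP fluorescence polarisation. ATP was held at 150 μM, five times its apparent KM, with 60 min room-temperature incubation.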

Regarding `Fc1cncc(Nc2cc(-c3nc(N4CCNCC4)c4c(C5CC5)cncc4n3)ccn2)c1` [Example 535, [4-(5-Cyclopropyl-4-piperazin-1-yl-pyrido[3,4-d]pyrimidin-2-yl)-pyridin-2-yl]-(5-fluoro-pyridin-3-yl)-amine], the pIC50 is 6.00 to 7.00. Regarding `c1ccc(-n2cc(Nc3cc(-c4nc(N5CCNCC5)c5c(C6CC6)cncc5n4)ccn3)cn2)cc1` [Example 492, [4-(5-cyclopropyl-4-piperazin-1-yl-pyrido[3,4-d]pyrimidin-2-yl)-pyridin-2-yl]-(1-phenyl-1H-pyrazol-4-yl)-amine], the negative-log IC50 (pIC50) is > 7.00. Consider `COc1cncc2nc(-c3ccnc(NC(=O)Cc4cccc(C#N)c4)c3)nc(N3CCN(C)CC3)c12` [Example 404, 2-(3-Cyano-phenyl)-N-{4-[5-methoxy-4-(4-methyl-piperazin-1-yl)-pyrido[3,4-d]pyrimidin-2-yl]-pyridin-2-yl}-acetamide], for which the pIC50 is 6.00 to 7.00.

Take `COc1cncc2nc(-c3ccnc(N)c3)nc(N3CCNCC3)c12` [Example 208, 4-(5-Methoxy-4-piperazin-1-yl-pyrido[3,4-d]pyrimidin-2-yl)-pyridin-2-ylamine]: the pIC50 was > 7.00. With `COc1cncc2nc(-c3ccnc(Nc4ccccc4)c3)nc(N3CC(CO)C3)c12` [Example 433, {1-[5-Methoxy-2-(2-phenylamino-pyridin-4-yl)-pyrido[3,4-d]pyrimidin-4-yl]-azetidin-3-yl}-methanol] the figure was 5.00 to 6.00; with `O[C@@H]1Cc2ccccc2[C@H]1Nc1cc(-c2nc(N3CCNCC3)c3c(C4CC4)cncc3n2)ccn1` [Example 2143, (1R,2R)-1-[4-(5-Cyclopropyl-4-piperazin-1-yl-pyrido[3,4-d]pyrimidin-2-yl)-pyridin-2-ylamino]-indan-2-ol], > 7.00. Turning to `N#Cc1ccnc(Nc2cc(-c3nc(N4CCC(O)C(O)C4)c4c(C5CC5)cncc4n3)ccn2)c1` (racemic) [Example 485, (±)-2-{4-[5-Cyclopropyl-4-cis-3,4-dihydroxy-piperidin-1-yl)-pyrido[3,4-d]pyrimidin-2-yl]-pyridin-2-ylamino}-isonicotinonitrile], the pIC50 is > 7.00. The figure for `COc1cncc2nc(-c3ccnc(Nc4ccccc4)c3)nc(N3CCC[C@@H](O)C3)c12` [Example 428, (R)-1-[5-Methoxy-2-(2-phenylamino-pyridin-4-yl)-pyrido[3,4-d]pyrimidin-4-yl]-piperidin-3-ol] is 5.00 to 6.00. `Cn1nc(Nc2cc(-c3nc(N4CCNCC4)c4c(C5CC5)cncc4n3)ccn2)c2ccccc21` [Example 2061, [4-(5-Cyclopropyl-4-piperazin-1-yl-pyrido[3,4-d]pyrimidin-2-yl)-pyridin-2-yl]-(1-methyl-1H-indazol-3-yl)-amine]: the pIC50 was > 7.00. For the compound `FC1(F)CCC(Nc2cc(-c3nc(N4CCNCC4)c4c(C5CC5)cncc4n3)ccn2)CC1` [Example 510, [4-(5-Cyclopropyl-4-piperazin-1-yl-pyrido[3,4-d]pyrimidin-2-yl)-pyridin-2-yl]-(4,4-difluoro-cyclohexyl)-amine], the pIC50 was > 7.00. Consider `Cc1ccc(Cl)c(Nc2cc(-c3nc(N4CCNCC4)c4c(C5CC5)cncc4n3)ccn2)c1F` [Example 617, (6-Chloro-2-fluoro-3-methyl-phenyl)-[4-(5-cyclopropyl-4-piperazin-1-yl-pyrido[3,4-d]pyrimidin-2-yl)-pyridin-2-yl]-amine], for which the negative-log IC50 (pIC50) was > 7.00. On to `COc1cncc2nc(-c3ccnc(NC(=O)Cc4ccncc4)c3)nc(N3CCNCC3)c12` [Example 400, N-[4-(5-Methoxy-4-piperazin-1-yl-pyrido[3,4-d]pyrimidin-2-yl)-pyridin-2-yl]-2-pyridin-4-yl-acetamide], for which the pIC50 is > 7.00. With `CC(=O)Nc1cc(-c2nc(N3CCNCC3)c3c(C4CC4)cncc3n2)ccn1` [Example 581, N-[4-(5-Cyclopropyl-4-piperazin-1-yl-pyrido[3,4-d]pyrimidin-2-yl)-pyridin-2-yl]-acetamide] the figure was > 7.00; with `O=C(O)c1ccc(Nc2cc(-c3nc(N4CCNCC4)c4c(C5CC5)cncc4n3)ccn2)cc1` [Example 684, 4-[4-(5-Cyclopropyl-4-piperazin-1-yl-pyrido[3,4-d]pyrimidin-2-yl)-pyridin-2-ylamino]-benzoic acid], 6.00 to 7.00; with `COc1cncc2nc(-c3ccnc(Nc4ccccc4)c3)nc(N3CCC(O)CC3)c12` [Example 427, 1-[5-Methoxy-2-(2-phenylamino-pyridin-4-yl)-pyrido[3,4-d]pyrimidin-4-yl]-piperidin-4-ol], 5.00 to 6.00.

`Fc1cccc2nc(Nc3cc(-c4nc(N5CCNCC5)c5c(C6CC6)cncc5n4)ccn3)nn12` [Example 2041, [4-(5-Cyclopropyl-4-piperazin-1-yl-pyrido[3,4-d]pyrimidin-2-yl)-pyridin-2-yl]-(5-fluoro-[1,2,4]triazolo[1,5-a]pyridin-2-yl)-amine]: the pIC50 is > 7.00. Regarding `C[C@H](N)CNc1nc(-c2ccncc2)nc2cnccc12` [Example 5, N-[(2S)-2-aminopropyl]-2-(pyridin-4-yl)pyrido[3,4-d]-pyrimidin-4-amine], the pIC50 was 4.40 to 5.00. For `c1cc(-c2nc(N3CCNCC3)c3c(C4CC4)cncc3n2)cc(NC2CCCC2)n1` [Example 281, Cyclopentyl-[4-(5-cyclopropyl-4-piperazin-1-yl-pyrido[3,4-d]pyrimidin-2-yl)-pyridin-2-yl]-amine], the pIC50 is > 7.00. For the compound `FC(F)(F)C1CN(c2nc(-c3ccncc3)nc3cnccc23)CCN1` (stereo not drawn) [Example 59, 1-[2-(pyridin-4-yl)-pyrido[3,4-d]-pyrimidin-4-yl]-3-(trifluoromethyl)-piperazine], the pIC50 is 4.40 to 5.00. On to `O=C1CN(c2nc(-c3ccncc3)nc3cnccc23)CCN1` [Example 27, 4-[2-(pyridin-4-yl)pyrido[3,4-d]-pyrimidin-4-yl]-piperazin-2-one], for which the pIC50 is 4.40 to 5.00. On to `COc1cncc2nc(-c3ccnc(Nc4ccc(N5CCN(C)CC5)nc4)c3)nc(N[C@@H]3CCNC3)c12` [Example 331, (5-Methoxy-2-{2-[6-(4-methyl-piperazin-1-yl)-pyridin-3-ylamino]-pyridin-4-yl}-pyrido[3,4-d]pyrimidin-4-yl)-(R)-pyrrolidin-3-yl-amine], for which the pIC50 was > 7.00.

As to `CS(=O)(=O)N1CCC(Nc2cc(-c3nc(N4CCNCC4)c4c(C5CC5)cncc4n3)ccn2)CC1` [Example 816, [4-(5-Cyclopropyl-4-piperazin-1-yl-pyrido[3,4-d]pyrimidin-2-yl)-pyridin-2-yl]-(1-methanesulfonyl-piperidin-4-yl)-amine], the pIC50 is > 7.00. With `CC(C)(C)c1cc2c(-c3nc(N4CCNCC4)c4c(C5CC5)cnc(C5CC5)c4n3)ccnc2[nH]1` [Example 2190, 2-(2-tert-Butyl-1H-pyrrolo[2,3-b]pyridin-4-yl)-5,8-dicyclopropyl-4-piperazin-1-yl-pyrido[3,4-d]pyrimidine] the figure was > 7.00; with `O=C(O)Cc1ccc(Nc2cc(-c3nc(N4CCNCC4)c4c(C5CC5)cncc4n3)ccn2)cc1` [Example 709, {4-[4-(5-Cyclopropyl-4-piperazin-1-yl-pyrido[3,4-d]pyrimidin-2-yl)-pyridin-2-ylamino]-phenyl}-acetic acid], 6.00 to 7.00.
